Results reported in PubChem BioAssay (NCI).
Several values for one entry are separate records, joined by “and”; a condition that tells them apart may be missing. Equal entries are not always repeated.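 Growth conditions: 96-well plates. Treatment: test compound, 48 hours, 5 concentrations. Analysis: linear interpolation between bracketing concentrations; unreached endpoints set to highest concentration. Here, GI50 denotes the concentration required for 50% inhibition of growth. TGI marks complete inhibition of growth.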

Legend:
Test in all cases: NCI tumour cell line growth inhibition, 48 h
[1] = test system: MDA-N
[2] = test system: DLD-1 colon
[3] = test system: HOP-18 NSCLC
[4] = test system: KM20L2 colon
[5] = test system: LXFL 529 NSCLC
[6] = test system: M19-MEL melanoma
[7] = test system: SNB-78 CNS
[8] = test system: XF 498 CNS
[9] = test system: RXF-631 renal

| Compound | TGI [1] [µM] | TGI [2] | TGI [3] | TGI [4] | TGI [5] | TGI [6] | TGI [7] | TGI [8] [µM] | further results |
| --- | --- | --- | --- | --- | --- | --- | --- | --- | --- |
| Cc1ccc2c(c1)C=CC(C#N)N2C(=O)Oc1ccccc1 (centres undefined) | > 100 |  |  |  |  |  |  |  |  |
| CCOC(=O)NC1CC2CCC1(OC)C=C2C (centres undefined) |  | > 100 µM | > 100 µM | > 100 µM | > 100 µM | > 100 µM | > 100 µM | > 100 |  |
| COC(=O)Cc1cc(=O)n2c([nH]c3ccccc32)c1C#N |  | > 100 µM |  | > 100 µM |  | > 100 µM | > 100 µM | > 100 |  |
| C[CH2][Sn]([CH2]C)([O]C(=O)c1ccc(F)cc1)[O][Sn]([CH2]C)([CH2]C)[O]C(=O)c1ccc(F)cc1 |  | > 100 µM | > 100 µM | > 100 µM | 25.8 µM | > 100 µM | 50.4 µM | 31 | GI50 [2]: 23.6 µM; GI50 [3]: > 100 µM; GI50 [4]: > 100 µM; GI50 [5]: 13 µM; GI50 [6]: 45.9 µM; GI50 [7]: 21.1 µM; GI50 [8]: 16.4 µM |
| Cc1ccccc1NC(=O)c1ccc([N+](=O)[O-])cc1 |  | > 100 µM | > 100 µM | > 100 µM | > 100 µM | > 100 µM | > 100 µM | > 100 |  |
| CC1=Nc2ccccc2C12C(c1ccccc1)C(c1ccccc1)C(=O)N1c3ccccc3CC12 (centres undefined) |  | > 100 µM |  | > 100 µM | > 100 µM |  | > 100 µM | 87.2 | TGI [9]: > 100 µM |
| O=c1ccnc(SCc2ccc(Cl)cc2)[nH]1 | > 100 |  |  |  |  |  |  |  |  |
| FC(F)(F)c1nc(-c2ccccc2)oc1Sc1oc(-c2ccccc2)nc1C(F)(F)F |  | > 100 µM | > 100 µM | > 100 µM | > 100 µM | > 100 µM | > 100 µM | > 100 |  |
| CC(=O)[O][Bi]([c]1ccccc1)[c]1ccccc1 | 20.3 |  |  |  |  |  |  |  | GI50 [1]: 7.57 µM |
| CC[CH2][Sn]([CH2]CC)([O]C(=O)Cc1ccc(F)cc1)[O][Sn]([CH2]CC)([CH2]CC)[O]C(=O)Cc1ccc(F)cc1 | 1.43 | 0.432 µM | 0.828 µM | 1.98 µM | 0.099 µM | 0.276 µM |  | 0.302 | GI50 [2]: 0.122 µM; GI50 [3]: 0.25 µM; GI50 [4]: 0.662 µM; GI50 [5]: 0.0129 µM; GI50 [6]: 0.0593 µM; GI50 [1]: 0.317 µM; GI50 [8]: 0.161 µM |
| Cc1ccc(NC(=O)c2cc3ccccc3cc2O)c(C)c1.Cc1ccc(NC(=O)c2cc3ccccc3cc2[O-])c(C)c1.[Ni+2] | 17.3 |  |  |  |  |  |  |  | GI50 [1]: 3.44 µM |
| CCOC(=O)c1cc(OC(=O)CC)c2c(OC)ccc(OC)c2c1 |  | > 100 µM | > 100 µM |  | > 100 µM | > 100 µM |  | > 100 |  |
| C=C(CN(C)C)C(=O)c1ccc(Oc2ccccc2)cc1 | 9.38 | 6.96 µM | 13.3 µM | 27.5 µM | 5.04 µM | 14.8 µM | 41.9 µM | 27.9 | TGI [9]: 35.9 µM |
| CC(C)c1cccc(C(C)C)c1NC(=O)CCC(=O)NN |  | > 100 µM | > 100 µM | > 100 µM | > 100 µM | > 100 µM | > 100 µM |  |  |
| Cc1c(CC/C(=N\Nc2ccc([N+](=O)[O-])cc2[N+](=O)[O-])c2ccccc2)c2ccccc2n1C |  | > 100 µM |  | > 100 µM | > 100 µM | > 100 µM | > 100 µM | > 100 | TGI [9]: > 100 µM |
| Nc1nc(-c2cccs2)cs1 | > 100 |  |  |  |  |  |  |  |  |
| O=C(Cc1ccccc1)NS(=O)(=O)c1ccccc1 |  | > 100 µM | > 100 µM | > 100 µM | > 100 µM |  | > 100 µM | > 100 | TGI [9]: > 100 µM |
| Cn1c(=N)n[n+]([O-])c2ccccc21 | 3.66 |  |  |  |  |  |  |  |  |
| CC1=CC(=O)c2ccc(C)cc2C1=O | 1.17 |  |  |  |  |  |  |  |  |
| c1ccc2c(c1)[nH]c1c2ncc2[nH]c3ccccc3c21 |  | 19.7 µM | 14.9 µM | 12.5 µM | 13.2 µM | 15.8 µM | 27.2 µM | 3.3 | TGI [9]: 5.05 µM |
| COC(C)(C)[C@H](O)C(O)CC(C)[C@@H]1CCC23CC12CCC1[C@@]2(C)CCC(OC(C)=O)C(C)(C)C2CC(OC2OC(COC(C)=O)C(O)C(O)C2O)[C@]13C (some centres undefined) |  | 6.29 µM and 9.73 µM | 19.7 µM and 13.3 µM | 2.12 µM and 7.94 µM | 12.8 µM and 19.2 µM | 10.2 µM and 13.8 µM | 17.9 µM and 31.7 µM |  | GI50 [2]: 3.13 µM; GI50 [3]: 4.15 µM; GI50 [4]: 2.63 µM; GI50 [5]: 6.23 µM; GI50 [6]: 4.04 µM; TGI [9]: 12.8 µM; GI50 [7]: 14 µM |
